# Source: ChEMBL document CHEMBL5291721, “A preclinical secondary pharmacology resource illuminates target-adverse drug reaction associations of marketed drugs” (Nat Commun, 2023)
# Assays:
# [1] = molecular target: T1, Alpha-1A adrenergic receptor (Homo sapiens, UniProt P35348); assay type: functional, cell-based
# T1 sequence (P35348 whole entry): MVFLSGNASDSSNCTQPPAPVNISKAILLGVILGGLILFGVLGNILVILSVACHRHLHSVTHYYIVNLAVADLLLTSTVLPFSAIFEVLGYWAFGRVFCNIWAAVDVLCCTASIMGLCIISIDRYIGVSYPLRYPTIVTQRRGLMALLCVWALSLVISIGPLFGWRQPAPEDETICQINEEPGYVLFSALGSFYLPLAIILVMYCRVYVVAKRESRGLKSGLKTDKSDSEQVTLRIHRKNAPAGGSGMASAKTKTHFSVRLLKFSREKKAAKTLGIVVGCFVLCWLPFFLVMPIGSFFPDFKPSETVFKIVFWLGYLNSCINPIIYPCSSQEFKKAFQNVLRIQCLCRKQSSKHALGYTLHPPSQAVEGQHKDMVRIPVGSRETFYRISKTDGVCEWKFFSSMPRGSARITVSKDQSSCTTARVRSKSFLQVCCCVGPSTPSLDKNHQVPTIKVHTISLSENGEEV
# [2] = molecular target: T1, Alpha-1A adrenergic receptor
# [3] = molecular target: T2, Muscarinic acetylcholine receptor M2 (Homo sapiens, UniProt P08172); assay type: functional, cell-based
# T2 sequence (P08172 whole entry): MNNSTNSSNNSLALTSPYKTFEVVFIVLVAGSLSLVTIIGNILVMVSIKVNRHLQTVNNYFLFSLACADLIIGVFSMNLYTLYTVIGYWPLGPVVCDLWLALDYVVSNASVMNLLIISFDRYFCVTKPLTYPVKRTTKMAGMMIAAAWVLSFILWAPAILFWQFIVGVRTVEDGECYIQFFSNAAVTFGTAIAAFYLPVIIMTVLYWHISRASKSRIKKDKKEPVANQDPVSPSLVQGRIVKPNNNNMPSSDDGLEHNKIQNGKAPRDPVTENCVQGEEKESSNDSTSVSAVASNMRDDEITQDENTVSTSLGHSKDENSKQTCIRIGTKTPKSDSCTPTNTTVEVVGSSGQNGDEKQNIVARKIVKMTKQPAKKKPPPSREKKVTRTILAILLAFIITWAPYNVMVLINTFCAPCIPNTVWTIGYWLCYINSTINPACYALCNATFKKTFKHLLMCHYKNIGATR
# Cannabinoid receptor 1 [4] = molecular target: T3, Cannabinoid receptor 1 (Homo sapiens, UniProt P21554)
# D(3) dopamine receptor = D(3) dopamine receptor (Homo sapiens, UniProt P35462)
# [5] = molecular target: Gamma-aminobutyric acid receptor subunit alpha-1 (Rattus norvegicus, UniProt P62813)
# [6] = molecular target: T4, Amine oxidase [flavin-containing] A (Homo sapiens, UniProt P21397); assay type: functional
# T4 sequence (P21397 whole entry): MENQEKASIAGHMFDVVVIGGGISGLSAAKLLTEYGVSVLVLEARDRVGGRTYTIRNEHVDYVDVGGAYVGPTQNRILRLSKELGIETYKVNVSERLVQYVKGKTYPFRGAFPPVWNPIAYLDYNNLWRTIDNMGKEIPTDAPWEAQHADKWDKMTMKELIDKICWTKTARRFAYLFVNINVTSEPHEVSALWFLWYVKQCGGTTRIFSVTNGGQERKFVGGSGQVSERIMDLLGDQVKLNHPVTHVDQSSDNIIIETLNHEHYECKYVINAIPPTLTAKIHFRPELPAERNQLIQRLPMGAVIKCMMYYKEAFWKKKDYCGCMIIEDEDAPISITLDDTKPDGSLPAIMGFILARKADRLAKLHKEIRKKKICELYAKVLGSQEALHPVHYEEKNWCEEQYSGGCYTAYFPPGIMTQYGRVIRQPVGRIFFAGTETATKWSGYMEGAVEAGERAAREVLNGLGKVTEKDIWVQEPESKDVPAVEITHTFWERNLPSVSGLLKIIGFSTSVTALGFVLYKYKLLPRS
# B2 bradykinin receptor = molecular target: T5, B2 bradykinin receptor (Homo sapiens, UniProt P30411)
# T5 sequence (P30411 whole entry): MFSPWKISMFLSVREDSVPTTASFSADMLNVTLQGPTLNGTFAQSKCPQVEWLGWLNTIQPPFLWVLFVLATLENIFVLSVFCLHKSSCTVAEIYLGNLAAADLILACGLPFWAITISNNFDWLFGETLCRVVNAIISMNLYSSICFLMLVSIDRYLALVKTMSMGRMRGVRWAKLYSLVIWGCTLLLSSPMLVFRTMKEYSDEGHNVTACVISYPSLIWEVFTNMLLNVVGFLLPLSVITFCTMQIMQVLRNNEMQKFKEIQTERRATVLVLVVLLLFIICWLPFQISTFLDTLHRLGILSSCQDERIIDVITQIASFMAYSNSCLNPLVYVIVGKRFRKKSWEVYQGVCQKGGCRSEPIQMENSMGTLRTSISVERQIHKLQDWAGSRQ
# [7] = molecular target: T6, Neuropeptide Y receptor type 1 (Homo sapiens, UniProt P25929)
# T6 sequence (P25929 whole entry): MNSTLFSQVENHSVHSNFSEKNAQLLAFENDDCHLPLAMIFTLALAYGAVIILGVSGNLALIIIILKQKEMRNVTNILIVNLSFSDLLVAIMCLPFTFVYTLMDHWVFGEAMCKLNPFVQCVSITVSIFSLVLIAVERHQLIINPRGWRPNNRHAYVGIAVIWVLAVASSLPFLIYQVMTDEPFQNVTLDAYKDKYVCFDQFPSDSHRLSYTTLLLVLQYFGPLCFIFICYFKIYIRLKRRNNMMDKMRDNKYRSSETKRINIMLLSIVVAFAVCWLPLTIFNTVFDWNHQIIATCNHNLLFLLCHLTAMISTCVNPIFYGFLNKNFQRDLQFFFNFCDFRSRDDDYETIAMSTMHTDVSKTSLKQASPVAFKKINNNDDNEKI
# Cannabinoid receptor 1 [8] = molecular target: T3, Cannabinoid receptor 1; assay type: functional, cell-based
# D(1A) dopamine receptor = D(1A) dopamine receptor (Homo sapiens, UniProt P21728)
# Prothrombin = Prothrombin (Homo sapiens, UniProt P00734); assay type: functional
# [9] = molecular target: cGMP-inhibited 3',5'-cyclic phosphodiesterase 3A (Homo sapiens, UniProt Q14432); assay type: functional
# [10] = molecular target: Prostaglandin G/H synthase 1 (Homo sapiens, UniProt P23219); assay type: functional
# Note: assay procedure not described here.
# cGMP-inhibited 3',5'-cyclic phosphodiesterase 3A, sequence (Q14432 whole entry): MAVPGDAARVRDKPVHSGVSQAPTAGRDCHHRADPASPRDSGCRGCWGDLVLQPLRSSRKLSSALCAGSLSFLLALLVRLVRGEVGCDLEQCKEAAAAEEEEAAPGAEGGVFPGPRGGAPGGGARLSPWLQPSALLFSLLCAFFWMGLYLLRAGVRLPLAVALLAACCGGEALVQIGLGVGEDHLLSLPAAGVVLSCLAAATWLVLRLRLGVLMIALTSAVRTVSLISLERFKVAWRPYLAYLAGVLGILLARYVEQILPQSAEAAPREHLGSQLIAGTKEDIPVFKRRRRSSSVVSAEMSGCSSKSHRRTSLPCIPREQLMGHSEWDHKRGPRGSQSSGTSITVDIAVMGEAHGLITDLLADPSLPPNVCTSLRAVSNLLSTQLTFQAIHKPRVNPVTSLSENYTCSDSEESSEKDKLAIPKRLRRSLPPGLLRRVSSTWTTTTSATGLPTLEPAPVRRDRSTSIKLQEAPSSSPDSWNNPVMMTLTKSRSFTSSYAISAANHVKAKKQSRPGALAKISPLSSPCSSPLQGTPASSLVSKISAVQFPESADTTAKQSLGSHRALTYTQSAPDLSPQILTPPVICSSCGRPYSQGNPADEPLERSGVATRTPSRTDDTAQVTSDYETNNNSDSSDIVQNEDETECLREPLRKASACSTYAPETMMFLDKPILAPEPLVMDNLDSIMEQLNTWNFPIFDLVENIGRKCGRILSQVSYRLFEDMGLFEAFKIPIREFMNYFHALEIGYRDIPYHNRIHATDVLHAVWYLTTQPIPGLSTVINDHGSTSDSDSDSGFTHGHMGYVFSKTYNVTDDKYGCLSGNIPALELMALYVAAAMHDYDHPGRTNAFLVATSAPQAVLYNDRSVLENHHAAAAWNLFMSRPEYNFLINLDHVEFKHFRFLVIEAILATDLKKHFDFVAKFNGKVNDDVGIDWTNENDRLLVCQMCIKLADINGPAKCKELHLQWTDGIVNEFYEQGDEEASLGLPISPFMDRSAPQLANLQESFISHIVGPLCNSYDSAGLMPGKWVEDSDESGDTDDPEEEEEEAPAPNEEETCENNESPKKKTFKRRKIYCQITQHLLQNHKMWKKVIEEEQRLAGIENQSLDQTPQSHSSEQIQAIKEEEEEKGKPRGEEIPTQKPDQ
# D(3) dopamine receptor, sequence (P35462 whole entry): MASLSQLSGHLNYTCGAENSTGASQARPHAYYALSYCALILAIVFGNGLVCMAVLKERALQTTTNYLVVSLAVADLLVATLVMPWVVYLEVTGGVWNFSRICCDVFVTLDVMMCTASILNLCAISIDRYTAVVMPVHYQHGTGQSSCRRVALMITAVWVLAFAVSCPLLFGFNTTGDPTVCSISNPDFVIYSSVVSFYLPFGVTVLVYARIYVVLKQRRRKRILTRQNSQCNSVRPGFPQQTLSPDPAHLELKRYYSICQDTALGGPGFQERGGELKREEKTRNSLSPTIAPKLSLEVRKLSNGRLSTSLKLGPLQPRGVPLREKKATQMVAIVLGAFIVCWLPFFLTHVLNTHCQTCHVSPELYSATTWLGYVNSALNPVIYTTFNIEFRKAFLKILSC
# T3 sequence (P21554 whole entry): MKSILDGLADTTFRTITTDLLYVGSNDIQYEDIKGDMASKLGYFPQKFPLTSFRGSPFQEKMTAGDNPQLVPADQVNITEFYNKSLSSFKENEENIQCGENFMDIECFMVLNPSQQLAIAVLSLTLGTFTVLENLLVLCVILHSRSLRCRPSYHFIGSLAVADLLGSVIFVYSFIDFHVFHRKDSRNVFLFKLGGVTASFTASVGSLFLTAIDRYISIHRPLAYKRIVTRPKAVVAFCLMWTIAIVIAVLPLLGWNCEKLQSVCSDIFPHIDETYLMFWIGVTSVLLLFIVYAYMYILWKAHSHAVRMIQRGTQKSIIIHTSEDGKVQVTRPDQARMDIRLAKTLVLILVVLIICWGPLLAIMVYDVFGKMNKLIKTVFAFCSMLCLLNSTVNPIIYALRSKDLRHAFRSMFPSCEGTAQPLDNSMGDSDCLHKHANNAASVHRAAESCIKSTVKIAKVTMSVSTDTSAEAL
# Prostaglandin G/H synthase 1, sequence (P23219 whole entry): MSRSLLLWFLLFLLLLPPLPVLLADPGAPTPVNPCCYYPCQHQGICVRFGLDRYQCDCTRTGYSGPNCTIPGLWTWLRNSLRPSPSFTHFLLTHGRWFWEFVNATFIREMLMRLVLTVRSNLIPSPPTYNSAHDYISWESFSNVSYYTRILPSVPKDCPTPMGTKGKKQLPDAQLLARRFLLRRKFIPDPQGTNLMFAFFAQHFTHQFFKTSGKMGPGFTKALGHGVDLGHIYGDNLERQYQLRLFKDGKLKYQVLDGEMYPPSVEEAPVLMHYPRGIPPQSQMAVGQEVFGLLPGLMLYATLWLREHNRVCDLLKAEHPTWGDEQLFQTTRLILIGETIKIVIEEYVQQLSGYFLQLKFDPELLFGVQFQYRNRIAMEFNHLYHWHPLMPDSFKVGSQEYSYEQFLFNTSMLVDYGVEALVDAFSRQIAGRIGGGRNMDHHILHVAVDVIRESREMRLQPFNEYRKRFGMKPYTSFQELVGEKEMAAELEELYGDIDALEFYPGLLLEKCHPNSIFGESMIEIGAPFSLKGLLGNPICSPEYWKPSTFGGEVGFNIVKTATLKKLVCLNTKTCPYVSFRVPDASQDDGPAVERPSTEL
# D(1A) dopamine receptor, sequence (P21728 whole entry): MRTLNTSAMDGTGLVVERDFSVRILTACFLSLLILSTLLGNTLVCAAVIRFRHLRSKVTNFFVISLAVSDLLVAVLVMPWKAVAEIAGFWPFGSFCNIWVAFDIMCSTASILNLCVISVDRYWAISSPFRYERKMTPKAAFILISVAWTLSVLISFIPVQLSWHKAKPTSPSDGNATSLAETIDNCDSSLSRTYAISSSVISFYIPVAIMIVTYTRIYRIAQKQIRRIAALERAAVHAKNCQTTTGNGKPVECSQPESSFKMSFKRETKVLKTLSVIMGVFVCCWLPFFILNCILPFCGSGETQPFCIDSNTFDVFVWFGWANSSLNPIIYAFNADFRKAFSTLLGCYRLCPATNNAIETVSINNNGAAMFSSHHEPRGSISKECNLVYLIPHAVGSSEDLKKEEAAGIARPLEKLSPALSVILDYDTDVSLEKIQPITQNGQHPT
# Gamma-aminobutyric acid receptor subunit alpha-1, sequence (P62813 whole entry): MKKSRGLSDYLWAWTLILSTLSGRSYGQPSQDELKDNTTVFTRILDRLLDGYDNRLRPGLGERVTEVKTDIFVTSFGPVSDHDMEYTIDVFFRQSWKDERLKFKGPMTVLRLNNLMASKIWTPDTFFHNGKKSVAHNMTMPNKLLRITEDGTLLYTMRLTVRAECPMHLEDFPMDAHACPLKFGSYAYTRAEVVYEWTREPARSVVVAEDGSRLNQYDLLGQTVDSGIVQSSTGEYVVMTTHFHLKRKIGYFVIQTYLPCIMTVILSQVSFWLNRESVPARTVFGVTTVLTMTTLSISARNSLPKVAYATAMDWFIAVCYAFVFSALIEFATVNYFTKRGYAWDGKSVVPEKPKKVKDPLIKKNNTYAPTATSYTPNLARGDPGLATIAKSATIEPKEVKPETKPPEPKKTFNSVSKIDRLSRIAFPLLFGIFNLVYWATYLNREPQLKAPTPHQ
Compound,AC50 [1],AC50 [2],AC50 [3],AC50 (Cannabinoid receptor 1 [4]),AC50 (D(3) dopamine receptor),AC50 [5],AC50 [6],AC50 (B2 bradykinin receptor),AC50 [7],AC50 (Cannabinoid receptor 1 [8]),AC50 (D(1A) dopamine receptor),AC50 (Prothrombin),AC50 [9],AC50 [10]
CN(C)CCCN1c2ccccc2CCc2ccc(Cl)cc21 [CLOMIPRAMINE],> 30 µM,0.0445 µM,> 10 µM,> 10 µM,0.0393 µM,> 10 µM,> 30 µM,–,–,–,–,–,–,–
NS(=O)(=O)c1cc2c(cc1Cl)NCNS2(=O)=O [HYDROCHLOROTHIAZIDE],–,> 10 µM,> 10 µM,> 10 µM,–,> 10 µM,–,> 30 µM,> 30 µM,–,–,–,–,–
NC1=NC(=O)C(c2ccccc2)O1 (configuration not stated) [PEMOLINE],–,> 10 µM,> 10 µM,–,–,> 10 µM,–,> 30 µM,> 30 µM,–,–,–,–,–
CCN(CC)CCNC(=O)c1cc(Cl)c(N)cc1OC [METOCLOPRAMIDE],–,> 10 µM,–,> 10 µM,–,> 10 µM,–,> 30 µM,> 30 µM,> 30 µM,–,–,–,–
CCc1nn(CCCN2CCN(c3cccc(Cl)c3)CC2)c(=O)n1CCOc1ccccc1 [NEFAZODONE],–,0.833 µM,–,–,–,> 10 µM,–,> 30 µM,> 30 µM,> 30 µM,–,–,–,–
O=C(O)c1cc(-c2ccc(F)cc2F)ccc1O [DIFLUNISAL],–,> 30 µM,> 10 µM,> 10 µM,–,> 10 µM,–,> 10 µM,> 10 µM,–,–,–,–,–
CC(C)C(=O)Nc1ccc([N+](=O)[O-])c(C(F)(F)F)c1 [FLUTAMIDE],> 30 µM,> 30 µM,> 10 µM,> 10 µM,> 30 µM,> 10 µM,> 30 µM,> 30 µM,> 30 µM,–,> 30 µM,> 30 µM,> 30 µM,> 30 µM
CC(N)Cc1ccccc1 (configuration not stated) [AMPHETAMINE],–,> 10 µM,> 30 µM,> 10 µM,–,> 10 µM,–,> 30 µM,> 30 µM,> 30 µM,–,–,–,–
C#C[C@]1(O)CC[C@H]2[C@@H]3CCc4cc(O)ccc4[C@H]3CC[C@@]21C [ETHINYL ESTRADIOL],> 30 µM,> 10 µM,> 10 µM,> 10 µM,> 30 µM,> 10 µM,> 30 µM,> 30 µM,> 30 µM,–,> 30 µM,> 30 µM,> 30 µM,> 30 µM
CC(C)(C(=O)c1cccnc1)c1cccnc1 [METYRAPONE],–,> 10 µM,> 10 µM,> 10 µM,–,> 10 µM,–,> 10 µM,> 10 µM,–,–,–,–,–
CC[C@H](C)C(=O)O[C@H]1C[C@H](O)C=C2C=C[C@H](C)[C@H](CC[C@@H](O)C[C@@H](O)CC(=O)O)[C@H]21 [PRAVASTATIN],–,> 10 µM,> 30 µM,> 10 µM,–,> 10 µM,–,–,–,> 30 µM,–,–,–,–
CCOC(=O)[C@H](CCc1ccccc1)N[C@@H](C)C(=O)N1CCC[C@H]1C(=O)O,–,> 10 µM,> 10 µM,> 10 µM,–,> 10 µM,–,> 30 µM,> 30 µM,> 30 µM,–,–,–,–
CCC[C@@H]1C[C@@H](C(=O)N[C@@H]([C@H]2O[C@H](SC)[C@H](O)[C@@H](O)[C@H]2O)[C@H](C)Cl)N(C)C1 [CLINDAMYCIN],–,3.42 µM,> 10 µM,> 10 µM,–,> 10 µM,–,> 30 µM,> 30 µM,> 30 µM,–,–,–,–
COC(=O)C1=C(C)NC(C)=C(C(=O)OCC(C)C)C1c1ccccc1[N+](=O)[O-] (configuration not stated) [NISOLDIPINE],–,16 µM,> 10 µM,–,–,> 10 µM,–,> 10 µM,> 10 µM,> 30 µM,–,–,–,–
NC[C@H]1O[C@H](O[C@H]2[C@H](O)[C@@H](O[C@H]3O[C@H](CO)[C@@H](O)[C@H](N)[C@H]3O)[C@H](N)C[C@@H]2N)[C@H](O)[C@@H](O)[C@@H]1O [KANAMYCIN],–,> 30 µM,> 10 µM,> 10 µM,–,> 10 µM,–,> 10 µM,> 10 µM,–,–,–,–,–
CCc1ccc(CCOc2ccc(CC3SC(=O)NC3=O)cc2)nc1 (configuration not stated) [PIOGLITAZONE],> 30 µM,> 10 µM,> 10 µM,–,> 30 µM,> 10 µM,> 30 µM,> 30 µM,> 30 µM,–,> 30 µM,> 30 µM,> 30 µM,> 30 µM
C[C@H]1C[C@@H]2[C@H]([C@@H](O)C[C@@]3(C)[C@H]2CC[C@]3(O)C(=O)CO)[C@@]2(C)C=CC(=O)C=C12 [METHYLPREDNISOLONE],–,> 30 µM,> 10 µM,> 10 µM,–,> 10 µM,–,> 10 µM,> 10 µM,–,–,–,–,–
CNC(=O)c1cc(Oc2ccc(NC(=O)Nc3ccc(Cl)c(C(F)(F)F)c3)cc2)ccn1 [SORAFENIB],–,> 10 µM,> 30 µM,–,–,> 30 µM,–,> 30 µM,> 30 µM,> 30 µM,–,–,–,–
NC(N)=Nc1nc(CSCCC(N)=NS(N)(=O)=O)cs1 [FAMOTIDINE],–,> 10 µM,> 10 µM,> 10 µM,–,> 10 µM,–,> 30 µM,> 30 µM,> 30 µM,–,–,–,–
NC[C@H]1CC[C@H](C(=O)O)CC1 [TRANEXAMIC ACID],–,> 30 µM,> 10 µM,> 10 µM,–,> 10 µM,–,> 10 µM,> 10 µM,–,–,–,–,–
